In patent publication US5079257A, “Indoloquinone compounds” (priority 1986, dated 1992):
Values after ≈ are worked out from the molar mass of the structure shown. Where two headings read alike, the source gives them in different places.

Assays:
[1] = system: L1210 cells; test: L1210 activity (bioliquid assay), cytotoxicity; type: cell-based; details: Mus musculus, L1210, 48 h
Text: The indoloquinones II (formula II) have been tested in respect of their cytotoxic activity against L1210 cells and R-1 cells (Rhabdomyosarcoma Cells) in a bioliquid assay at the department of oncology of the Free University of Amsterdam (Table I). In addition to this seven compounds (E.O. 1, E.O. 2, E.O. 4, E.O. 7, E.O. 9, E.O. 16 and E.O. 17) have been tested on L1210 activity in a clonogenic assay at TNO, Rijswijk. Further, the lowest active doses of the compounds E.O. 1, E.O. 2, E.O. 4 and E.O. 9 have been determined at TNO Rijswijk, according to the method described by Lamberts et al. [Oncology, 40, 301 (1983)]. (Table II). Eight indoloquinones (E.O. 1, E.O. 2, E.O. 4, E.O. 4A, E.O. 8, E.O. 9, E.O. 33 and E.O. 35) have been tested in a panel of five human tumour lines (TNO Rijswijk; Table III). From the latter group three indoloquinones (E.O. 1, E.O. 4 and E.O. 9) have been selected for a cytotoxicity study, involving five slowly growing human tumour lines (University of Freiburg; Table IV).
For this purpose, L1210 cells were grown, as suspension, in Falcon multi-wells (growth area: 9.6 cm^2) using RPMI supplemented with 15% FCS and 2-mercapto-ethanol (60 μmol) as medium. In this medium, the cells were continuously incubated with the compound to be tested at 37° C. in an atmosphere of 5% CO2 in humidified air for 48 hours. Thereupon they were counted on a Sysmex microcell counter (CC110).
(§1) The in vitro L1210 and R-1 activities of the indoloquinones (formula III), were also determined in the bioliquid assays as described above.

[2] = system: P 388 tumour cells; test: In vivo P388 experiments (Brussels); design: species or system mice; details: for MAX T/C: days 1 to 5
Experimental: These experiments were carried out at the Institute Jules Bordet, Brussels, on CDF, female mice. The mice were inoculated intraperitoneally (IP) with 1×10^6 P 388 tumour cells. After 24 hours, the compounds were administrated as suspensions in "Tween-80" or using saline as vehicle. Six mice were used at each dose of the compound, given on days 1 to 5 and eighteen control mice were injected with saline.

[3] = system: MCF7 breast cancer cells; test: In vitro panel of human tumour lines (TNO): MCF-7; type: cell-based; details: about 72 hours; further: key: -: no inhibition of cell growth; +: total cell-kill
Experimental: (§2) Compounds E.O. 1, E.O. 2, E.O. 4, E.O. 4A, E.O. 8, E.O. 9, […], E.O. 33, and E.O. 35 were tested for their activity against five human tumour cell lines at the Radiobiological Institute TNO Rijswijk.
(§3) The new in vitro prescreen uses human tumour clones; it was set up by Dr. P. Lelieveld at TNO Rijswijk and comprises testing compounds in a bioliquid assay for their cytostatic activity against the following five human tumour lines:
(§4) After a continuous exposure to the drugs to be tested and to Adriamycin in `24 well tissue culture clusters, type 3524 (Costar)`, the remaining cells are fixed and stained. Using increasing drug concentrations the inhibiting concentration can be estimated qualitatively.
(§5) Cells: the human tumour cells are maintained in Dulbecco's medium supplemented with 10 percent foetal calf serum.
(§6) M and W cell suspensions: 10^5 cells/ml.
(§7) The cells were grafted into 16 mm wells for 48 hours (0.5 ml cell suspension per well was used).
(§8) Drugs: the compound to be tested was dissolved in appropriate concentrations in a mixture of Hepes-buffered Hanks' balanced salt solution and ethanol. The drug solutions (0.05 ml) were added to the different wells. The final ethanol concentration in each well was less than one percent.
(§9) The cells were continuously incubated with the compound under test at 37° in an atmosphere of 10 percent CO2 in humidified air for about 72 hours.
(§10) Determination of the inhibiting dose: the cells were fixed and stained with a solution of crystal violet in methanol/formaldehyde.

[4] = system: IgR37 cells melanoma; test: In vitro panel of human tumour lines (TNO): IgR-37; type: cell-based; details: about 72 hours; further: key: -: no inhibition of cell growth; +: total cell-kill
Experimental: as §2, §3, §4, §5
(§11) A, T and Z cell suspensions: 5·10^4 cells/ml
as §7, §8, §9, §10

[5] = system: A 204 cells; rhabdomyosarcoma; test: In vitro panel of human tumour lines (TNO): A 204; type: cell-based; details: about 72 hours; further: key: -: no inhibition of cell growth; +: total cell-kill
Experimental: as §2, §3, §4, §5, §11, §7, §8, §9, §10

[6] = system: R-1 cells (Rhabdomyosarcoma Cells); test: R-1 activity (bioliquid assay), cytotoxicity; type: cell-based; details: Rhabdomyosarcoma cell
Text: The indoloquinones II (formula II) have been tested in respect of their cytotoxic activity against L1210 cells and R-1 cells (Rhabdomyosarcoma Cells) in a bioliquid assay at the department of oncology of the Free University of Amsterdam (Table I). […] (Table II). Eight indoloquinones (E.O. 1, E.O. 2, E.O. 4, E.O. 4A, E.O. 8, E.O. 9, E.O. 33 and E.O. 35) have been tested in a panel of five human tumour lines (TNO Rijswijk; Table III).
For the determination of the R-1 activity, Rhabdomyosarcoma cells were brought into Falcon multiwells (growth area: 9.6 cm^2) (~10^6 cells per dish) containing 3 ml of Dulbecco's medium supplemented with 10% Foeto Calf Serum (FCS). […] Thereupon the drug solution was removed and the cells were covered with fresh medium. After 48 hours the cells were trypsinized and counted on a Sysmex microcell counter (CC110).
as §1

[7] = system: WiDr cells; colon tumour; test: In vitro panel of human tumour lines (TNO): WiDr; type: cell-based; details: about 72 hours; further: key: -: no inhibition of cell growth; +: total cell-kill
Experimental: as §2, §3, §4, §5, §6, §7, §8, §9, §10

[8] = system: T 24 cells; bladder carcinoma; test: In vitro panel of human tumour lines (TNO): T 24; type: cell-based; details: about 72 hours; further: key: -: no inhibition of cell growth; +: total cell-kill
Experimental: as §2, §3, §4, §5, §11, §7, §8, §9, §10

[9] = Half-wave reduction potentials / polarography (University of Utrecht); type: physicochemical; details: pH = 8 vs Ag/AgCl
Text: *The halve wave reduction potentials (E1/2) have been determined at the
Pharmaceutical Laboratory of University of Utrecht. Only the first
(quinone) reduction potential has been given.
Additional evidence for the occurrence of a bioreductive activation mechanism during the cytotoxic action of indoloquinones (II) was obtained via electrochemical studies, which have been carried out at the Pharmaceutical Laboratory of the University of Utrecht. […]

[10] = system: Ovarian (MRI-H-207) line; type: in vivo, human
Text: The xenograft experiments have been carried by Dr. H. H. Fiebig of the University of Freiburg [Lung-NSCLC (LXGF) line, Renal line, Breast line; See: H. H. Fiebig et al., Behring Inst. Mitt., 74 343] and by Dr. E. Boven of the Free University Hospital Amsterdam [Ovarian (MRI-H-207) line; See: E. Boven et al., Cancer Res., 45, 86 (1985) and E. Boven et al., Eur. J. Clin. Oncol., 21, 1253 (1985)].
Mice: C57B1 athymic (nu/nu) female mice, 8 to 10 weeks of age were used for s.c. bilateral implantation of tumour fragments 2 mm diameter.
Treatment: E.O. 9 was dissolved in saline at a concentration of 0.5 mg/ml prior to administration. Drug doses and schedules were derived from studies in experimental murine tumour systems and from orientation studies in non-tumour-bearing nude mice. Treatment was started i.v. when tumours measured 50-150 mm^3. After randomization a group of 6-7 tumour-bearing mice was treated and a group of 5-6 tumour-bearing mice served as control.
Evaluation of efficacy: Tumours were measured twice weekly in three dimensions. Efficacy was expressed as the mean of relative tumour volume in treated animals vs. that in control animals×100 (% T/C). The optimal value was calculated within 35 days after the last injection. Toxic death (dead mice within two weeks after the last injection) were excluded from the evaluation.
MRI-H-207: An undifferentiated adenocarcinoma kindly provided by Dr. A. E. Bogden, Worcester, Mass, with a doubling time of 3-5 days.

[11] = read-out: ID-50 L1210, Table VIII
[12] = read-out: ID-50 R-1, Table I, bioliquid assay
[13] = read-out: ID-50 R-1, Table VIII
[14] = 60 mg/kg, days of treatment 0,6,13,20
[15] = 150 mg/kg, days of treatment 0,9,16

SMILES | IC50 [1, 11] [µg/mL] | in vitro activity score, MCF-7 ([3]; 0.01 μg/ml) | in vitro activity score, MCF-7 ([3]; 0.1 μg/ml) | in vitro activity score, MCF-7 ([3]; 1.0 μg/ml) | in vitro activity score, IgR-37 ([4]; 0.01 μg/ml) | in vitro activity score, IgR-37 ([4]; 10 μg/ml) | in vitro activity score, A 204 ([5]; 0.01 μg/ml) | in vitro activity score, A 204 ([5]; 0.1 μg/ml) | in vitro activity score, A 204 ([5]; 1.0 μg/ml) | IC50 [6, 13] [µg/mL] | in vitro activity score, WiDr ([7]; 0.01 μg/ml) | in vitro activity score, WiDr ([7]; 0.1 μg/ml) | in vitro activity score, WiDr ([7]; 1.0 μg/ml) | in vitro activity score, T 24 ([8]; 0.01 μg/ml) | in vitro activity score, T 24 ([8]; 0.1 μg/ml) | in vitro activity score, T 24 ([8]; 1.0 μg/ml) | in vitro activity score, MCF-7 ([3]; 10 μg/ml) | also measured
CC(=O)OC/C=C/c1c(COC(C)=O)c2c(n1C)C(=O)C(C)=C(N1CC1)C2=O [E.O. 35, 3-Acetoxymethyl-5-aziridino-1,6-dimethyl-2-[1H-indole-4,7-dione]prop-β-en-αyl acetate] | 0.55 | - | - | - | - | + | - | - | - | 0.32 | - | - | - | - | - | - |  | MAX T/C ([2]; 400 mg/kg): 131%; T/C at the optimal dose ([2]; optimal dose): ~130%; in vitro activity score, IgR-37 ([4]; 0.1 μg/ml): -; IC50 [6, 12]: 0.3 µg/mL
CC1CN1C1=CC(=O)c2c(c(CO)c(/C=C/CO)n2C)C1=O (stereo not drawn) [E.O. 8, 3-Hydroxymethyl-1-methyl-5-propyleneamino-2-[1H-indole-4,7-dione]prop-β-en-α-ol] | 0.48 (≈ 1.59 µM) | - | - | - | - | + | - | - | - | 7.6 (≈ 25.1 µM) | - | - | - | - | - | - | - | IC50 ([1]; read-out: ID-50 L1210, Table I, bioliquid assay, 48 hours): 0.5 µg/mL (≈ 1.65 µM); in vitro activity score, IgR-37 ([4]; 0.1 μg/ml): -; in vitro activity score, IgR-37 ([4]; 1.0 μg/ml): -; half-wave potential E1.2, wave I [9]: -380 mV; half-wave potential E1.2, wave II [9]: -780 mV
O=c1[nH]cc(F)c(=O)[nH]1 [5FU] |  |  |  |  |  |  |  |  |  |  |  |  |  |  |  |  |  | T/C % [10, 14]: 63%; toxic deaths [10, 14]: 0/7
CC(=O)OCc1c2c(n(C)c1/C=C/CO)C(=O)C=C(N1CC1)C2=O [E.O. 4A, 3-Acetoxymethyl-5-aziridino-1-methyl-2-[1H-indole-4,7-dione]prop-β-en-α-ol] | 0.15 (≈ 0.454 µM) | - | - |  | - | + | - | - | + | 0.022 (≈ 0.0666 µM) | - | - | + | - | - | + | + | MAX T/C ([2]; 100 mg/kg): 120%; in vitro activity score, IgR-37 ([4]; 1.0 μg/ml): +; in vitro activity score, A 204 ([5]; 10 μg/ml): +; IC50 [6, 12]: 0.02 µg/mL (≈ 0.0605 µM); in vitro activity score, WiDr ([7]; 10 μg/ml): +; in vitro activity score, T 24 ([8]; 10 μg/ml): +
N.N.O=C([O-])C1(C(=O)[O-])CCC1.[Pt+2] [Carboplatin] |  |  |  |  |  |  |  |  |  |  |  |  |  |  |  |  |  | toxic deaths ([10]; 60 mg/kg, days of treatment 0.6): 0/6
CN(Cc1cnc2nc(N)nc(N)c2n1)c1ccc(C(=O)N[C@@H](CCC(=O)O)C(=O)O)cc1 [Methotrex., reference compound] |  | - | - | - | - |  |  | + | + |  | - |  |  |  |  |  | - | in vitro activity score, A 204 ([5]; 10 μg/ml): +; T/C % [10, 15]: 47%; toxic deaths [10, 15]: 2/7
COc1cccc2c1C(=O)c1c(O)c3c(c(O)c1C2=O)C[C@@](O)(C(=O)CO)C[C@@H]3O[C@H]1C[C@H](N)[C@H](O)[C@H](C)O1 [DXR] |  |  |  |  |  |  |  |  |  |  |  |  |  |  |  |  |  | toxic deaths ([10]; 10 mg/kg, days of treatment 0.7): 1/6
CN(C)c1nc(N(C)C)nc(N(C)C)n1 [HMM] |  |  |  |  |  |  |  |  |  |  |  |  |  |  |  |  |  | toxic deaths ([10]; 150 mg/kg, days of treatment 0,2,4,6): 1/6
O=P1(N(CCCl)CCCl)NCCCO1 (stereo not drawn) [CTX] |  |  |  |  |  |  |  |  |  |  |  |  |  |  |  |  |  | toxic deaths [10]: 2/7
